Measured values reported in ChEMBL document CHEMBL1201862, “PubChem BioAssay data set” (2004).
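Dose response: 5 concentrations. Exposure: 48 h. Format: 96-well plates. Endpoint: linear interpolation; highest concentration if not reached. GI50 marks 50% less growth.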 Calls of active or inactive are those of the source. No stated cut-off is given here; in the data, active = GI50 up to about 1.1 µM and inactive = higher.

Experiments:
Assay in all cases: NCI-60 cell line screen, 48 h
HCC 2998 = tested on: HCC 2998
HCT-15 = tested on: HCT-15
KM12 = tested on: KM12
Malme-3M = tested on: Malme-3M
NCI-H226 = tested on: NCI-H226
RPMI-8226 = tested on: RPMI-8226
RXF 393 = tested on: RXF 393
SK-MEL-2 = tested on: SK-MEL-2
SNB-19 = tested on: SNB-19
SNB-75 = tested on: SNB-75
TK-10 = tested on: TK-10
UACC-257 = tested on: UACC-257
UO-31 = tested on: UO-31
HT-29 = tested on: HT-29
LOX IMVI = tested on: LOX IMVI
SF-295 = tested on: SF-295
OVCAR-5 = tested on: OVCAR-5

Row | SMILES | GI50 (HCC 2998) | GI50 (HCT-15) [µM] | GI50 (KM12) | GI50 (Malme-3M) | GI50 (NCI-H226) | GI50 (RPMI-8226) | GI50 (RXF 393) | GI50 (SK-MEL-2) | GI50 (SNB-19) | GI50 (SNB-75) | GI50 (TK-10) | GI50 (UACC-257) | GI50 (UO-31) | GI50 (HT-29) | GI50 (LOX IMVI) | GI50 (SF-295) | GI50 (OVCAR-5)
1 | Nc1ccn([C@@H]2C[C@H](CO)[C@@H](O)[C@H]2O)c(=O)n1 | > 57.7 µM (inactive) | > 57.7 | > 57.7 µM (inactive) | > 57.7 µM (inactive) | > 57.7 µM (inactive) | > 57.7 µM (inactive) | > 57.7 µM (inactive) | > 57.7 µM (inactive) | > 57.7 µM (inactive) | > 57.7 µM (inactive) | > 57.7 µM (inactive) | > 57.7 µM (inactive) | > 57.7 µM (inactive) |  |  |  | 
2 | C=C=C(CC)C(C(=O)OC)N(CC)CC (centres undefined) |  |  | > 100 µM (inactive) | > 100 µM (inactive) | > 100 µM (inactive) | > 100 µM (inactive) | > 100 µM (inactive) |  | > 100 µM (inactive) | > 100 µM (inactive) | > 100 µM (inactive) | > 100 µM (inactive) | > 100 µM (inactive) | > 100 µM (inactive) | > 100 µM (inactive) | > 100 µM (inactive) | 
3 | O=C(O)Cn1c(=O)[nH]c(=O)c2[nH]cnc21 | > 100 µM (inactive) | > 100 | > 100 µM (inactive) | > 100 µM (inactive) |  |  | > 100 µM (inactive) | > 100 µM (inactive) | > 100 µM (inactive) | > 100 µM (inactive) | > 100 µM (inactive) | > 100 µM (inactive) | > 100 µM (inactive) | > 100 µM (inactive) | > 100 µM (inactive) |  | > 100 µM (inactive)
4 | COc1cc2c(c(OC)c1)C1(CC(CC#N)C2)SCCS1 (centres undefined) | > 100 µM (inactive) | > 100 | > 100 µM (inactive) | > 100 µM (inactive) | > 100 µM (inactive) | > 100 µM (inactive) | > 100 µM (inactive) | > 100 µM (inactive) | > 100 µM (inactive) | 56.9 µM (inactive) | > 100 µM (inactive) | > 100 µM (inactive) | > 100 µM (inactive) |  |  |  | 
5 | OC(CCl)CN1CC[N+]2(CC1)CC[N+]1(CCN(CC(O)CCl)CC1)CC2 (centres undefined) [PROSPIDIUM CHLORIDE] | > 50 µM (inactive) | > 50 | > 50 µM (inactive) | > 50 µM (inactive) | > 50 µM (inactive) | > 50 µM (inactive) | > 50 µM (inactive) | > 50 µM (inactive) | > 50 µM (inactive) | > 50 µM (inactive) | > 50 µM (inactive) |  | > 50 µM (inactive) | > 50 µM (inactive) |  | > 50 µM (inactive) | 
6 | O=C1OC(c2ccccc2)=N/C1=C\c1ccc2ccccc2c1 |  | > 100 | > 100 µM (inactive) | > 100 µM (inactive) |  | > 100 µM (inactive) | > 100 µM (inactive) | > 100 µM (inactive) | > 100 µM (inactive) | > 100 µM (inactive) | > 100 µM (inactive) | > 100 µM (inactive) | > 100 µM (inactive) | > 100 µM (inactive) | > 100 µM (inactive) |  | > 100 µM (inactive)
7 | CC(C)(C)c1ccc2c(c1)C(O)(c1ccccc1)c1cc(C(C)(C)C)ccc1C2(O)C(F)(F)F (centres undefined) | 2.1 µM (inactive) | 1.39 | 1.93 µM (inactive) | 2.51 µM (inactive) | 1.05 µM (active) |  | 1.82 µM (inactive) | 1.76 µM (inactive) | 2.27 µM (inactive) | 2.13 µM (inactive) | 3.98 µM (inactive) | 2.33 µM (inactive) | 2.11 µM (inactive) | 1.57 µM (inactive) | 1.82 µM (inactive) | 1.43 µM (inactive) | 1.66 µM (inactive)
8 | CC(=O)OC1CCn2nnc(CO[Si](C)(C)C(C)(C)C)c21 (centres undefined) | > 100 µM (inactive) | > 100 | > 100 µM (inactive) | > 100 µM (inactive) | > 100 µM (inactive) | > 100 µM (inactive) | > 100 µM (inactive) | > 100 µM (inactive) | > 100 µM (inactive) | 21 µM (inactive) | > 100 µM (inactive) | > 100 µM (inactive) | > 100 µM (inactive) | > 100 µM (inactive) |  | > 100 µM (inactive) | > 100 µM (inactive)
9 | CCOC(=O)c1nc(C)oc1C(F)(F)F | > 100 µM (inactive) | > 100 | > 100 µM (inactive) | > 100 µM (inactive) | > 100 µM (inactive) |  | > 100 µM (inactive) | > 100 µM (inactive) | > 100 µM (inactive) | > 100 µM (inactive) | > 100 µM (inactive) | > 100 µM (inactive) | > 100 µM (inactive) | > 100 µM (inactive) | > 100 µM (inactive) | > 100 µM (inactive) | > 100 µM (inactive)
10 | O=C(Nc1ccn(CCI)c(=O)n1)c1ccccc1 |  | > 100 | > 100 µM (inactive) | > 100 µM (inactive) | > 100 µM (inactive) | > 100 µM (inactive) | > 100 µM (inactive) | > 100 µM (inactive) |  | > 100 µM (inactive) | > 100 µM (inactive) | > 100 µM (inactive) | > 100 µM (inactive) | > 100 µM (inactive) | > 100 µM (inactive) | > 100 µM (inactive) | > 100 µM (inactive)
